Source: patent US9204653B2, “5-fluoro pyrimidine derivatives” (DOW AGROSCIENCES LLC, priority 2008, dated 2015)
Like-named read-outs stand apart in the source and are kept apart here.

Experiments:
[1] = tested on: Mycosphaerella graminicola; Anamorph: Septoria tritici; Bayer Code SEPTTR; test: Leaf blotch of wheat, foliar fungicide treatment, one day protectant (1DP) or three day curative (3DC); format: in vivo, Septoria tritici on wheat plants (variety Yuma); details: Zymoseptoria tritici; for pest or weed control at 25 ppm / pest or weed control at 100 ppm: rating of percent disease control; for pest or weed control at 50 ppm / pest or weed control at 200 ppm: % disease control rating
[2] = tested on: Cercospora beticola; Bayer Code CERCBE; test: Leaf spot of sugar beets; format: in vivo, Cercospora beticola on sugar beets (variety HH-88); details: 24 h, % disease control rating, one day protectant; for pest or weed control at 25 ppm: read-out: CERCBE 1 DP 25 ppm; for pest or weed control at 75 ppm: read-out: CERCBE 1 DP 75 ppm
[3] = tested on: Venturia inaequalis; Bayer Code VENTIN; test: Apple scab; format: in vivo; details: 24 h, % disease control rating, one day protectant; for pest or weed control at 25 ppm: read-out: VENTIN 1 DP 25 ppm; for pest or weed control at 75 ppm: read-out: VENTIN 1 DP 75 ppm
[4] = 24 h, one day protectant, read-out: SETTTR 1DP 25 ppm
[5] = 24 h, one day protectant, read-out: SEPTTR 1DP 100 ppm
[6] = 72 h, three day curative, read-out: SEPTTR 3DC 25 ppm
[7] = 72 h, three day curative, read-out: SEPTTR 3DC 100 ppm
[8] = 24 h, one day protectant (1DP), read-out: SETTTR 1DP 25 ppm
[9] = 24 h, one day protectant (1DP), read-out: SEPTTR 1DP 100 ppm
[10] = 72 h, three day curative (3DC), read-out: SEPTTR 3DC 25 ppm
[11] = 72 h, three day curative (3DC), read-out: SEPTTR 3DC 100 ppm

SMILES | pest or weed control at 25 ppm [1, 4] [%] | pest or weed control at 100 ppm [1, 5] [%] | pest or weed control at 25 ppm [1, 6] [%] | pest or weed control at 100 ppm [1, 7] [%] | pest or weed control at 25 ppm [2] [%] | pest or weed control at 75 ppm [2] [%] | pest or weed control at 25 ppm [3] [%] | pest or weed control at 75 ppm [3] [%] | pest or weed control at 25 ppm [1, 8] [%] | pest or weed control at 100 ppm [1, 9] [%] | pest or weed control at 25 ppm [1, 10] [%] | pest or weed control at 100 ppm [1, 11] [%] | pest or weed control at 50 ppm ([1]; 24 h, one day protectant) [%] | pest or weed control at 200 ppm ([1]; 24 h, one day protectant) [%]
CC(C)(c1ccccc1)c1cccc(COc2ncc(F)c(N)n2)c1 [Compound 687] | 26 to 50 | 76 to 100 | 0 to 25 | 0 to 25 | 0 to 25 | 0 to 25 | 26 to 50 | 51 to 75 | – | – | – | – | – | –
Fc1ccc(COc2ncc(F)c(NCn3c(-c4cscn4)nc4ccccc43)n2)cc1 [Compound 694] | 0 to 25 | 26 to 50 | 0 to 25 | 26 to 50 | 26 to 50 | 26 to 50 | 26 to 50 | 51 to 75 | – | – | – | – | – | –
Nc1nc(OCc2ccc(Cl)c([N+](=O)[O-])c2)ncc1F [Compound 707] | 76 to 100 | 76 to 100 | 76 to 100 | 76 to 100 | 51 to 75 | 26 to 50 | 51 to 75 | 51 to 75 | – | – | – | – | – | –
CC(CCOc1ncc(F)c(N)n1)c1ccccc1 (centres unmarked) [Compound 710] | 51 to 75 | 76 to 100 | 51 to 75 | 76 to 100 | 0 to 25 | 0 to 25 | 26 to 50 | 26 to 50 | – | – | – | – | – | –
Nc1nc(OCCSc2ccc(Cl)cc2)ncc1F [Compound 719] | 0 to 25 | 51 to 75 | – | – | 0 to 25 | 26 to 50 | 51 to 75 | 51 to 75 | – | – | – | – | – | –
CN(C)/C=N/c1nc(OCc2ccn(C)n2)ncc1F [Compound 730] | 76 to 100 | 76 to 100 | 76 to 100 | 76 to 100 | 26 to 50 | 26 to 50 | 51 to 75 | 51 to 75 | – | – | – | – | – | –
COc1ccc(COc2ncc(F)c(/N=C3\CCCCN3C)n2)cc1F [Compound 732] | 76 to 100 | 76 to 100 | 51 to 75 | 76 to 100 | 26 to 50 | 76 to 100 | 26 to 50 | 76 to 100 | – | – | – | – | – | –
CO/N=C\Nc1nc(OCc2ccc(F)cc2)ncc1F [Compound 739] | – | – | – | – | 0 to 25 | 0 to 25 | 26 to 50 | 51 to 75 | 76 to 100 | 76 to 100 | 76 to 100 | 76 to 100 | – | –
COc1cccc(COc2ncc(F)c(NCO)n2)c1 [Compound 741] | – | – | – | – | 0 to 25 | 0 to 25 | 51 to 75 | 76 to 100 | 26 to 50 | 76 to 100 | 76 to 100 | 76 to 100 | – | –
Cn1nc(Oc2ncc(F)c(N)n2)cc1C(F)(F)F [Compound 764] | – | – | – | – | 26 to 50 | 0 to 25 | 26 to 50 | 26 to 50 | 0 to 25 | 0 to 25 | 0 to 25 | 0 to 25 | – | –
Cc1c(COc2ncc(F)c(N)n2)cnn1C [Compound 800] | – | – | – | – | 76 to 100 | 76 to 100 | 76 to 100 | 76 to 100 | 76 to 100 | 76 to 100 | 76 to 100 | 76 to 100 | – | –
Fc1cnc(OCc2cccs2)nc1NCc1ccc2c(c1)OCO2 [Compound 804] | – | – | – | – | 0 to 25 | 0 to 25 | 0 to 25 | 0 to 25 | – | – | – | – | 26 to 50 | 51 to 75
Fc1cnc(OCc2cccs2)nc1N1CCOCC1 [Compound 845] | – | – | – | – | 0 to 25 | 0 to 25 | 26 to 50 | 26 to 50 | – | – | – | – | 76 to 100 | 76 to 100
